Among the data in PubChem BioAssay (NCI) are TGI values, retold here.

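Tested at 5 concentrations; 48 h exposure; 96-well plates; endpoints linearly interpolated, else capped at highest concentration. TGI denotes the concentration required for complete inhibition of growth.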

Experiment in all cases: DTP human tumour cell line panel, 48 h
Experiment [1] deals with DLD-1 colon.
Experiment [2] deals with LXFL 529 NSCLC.
Experiment [3] deals with KM20L2 colon.
For experiment [4], the system named is RXF-631 renal.
The subject of experiment [5] is XF 498 CNS.
The test system of experiment [6] is M19-MEL melanoma.
In experiment [7] the test system is SNB-78 CNS.
Experiment [8] relates to DMS 273 small cell lung.
Experiment [9] deals with DMS 114 small cell lung.
In experiment [10] the test system is HOP-18 NSCLC.

By TGI is commonly meant the concentration at which net growth stops. A high value points to lower sensitivity of the cells. Take `Nc1ncnc2sc(Nc3ccccc3)nc12`: the TGI in experiment [1], in [2], in [3], in experiment [4], in experiment [5] and in experiment [6] was greater than 100 µM throughout. The TGI in experiment [7] and in [8] was greater than 100 µM in each case.
Regarding `Cn1c(=O)c(C(=O)NC23CC4CC(CC(C4)C2)C3)c(O)c2ccccc21`, the TGI in experiment [9], in [1], in experiment [2], in experiment [3], in experiment [6] and in experiment [7] was greater than 100 µM in each case. The same molecule had a TGI in experiment [8] of 64.3 µM.
Regarding `O=c1c2ccccc2n2cnc3ccc(NCCNCCO)c1c32`, the TGI in [9] turned out to be 12.2 µM; in experiment [1] it was 16.9 µM; in experiment [2], 16.4 µM; in experiment [10], 26.8 µM; in [3] it was 12.1 µM; in [4] it was 8.68 µM. Also, the results for the TGI in experiment [6] and in [7] were 12.9 µM and 15.5 µM, respectively.
As for `Nc1ncnc2c1ncn2CCOC(c1ccccc1)P(=O)(O)O` (stereo not given), the TGI in experiment [1], in experiment [2], in experiment [3], in experiment [6], in experiment [7] and in experiment [8] was greater than 100 µM throughout.
As to `CSc1nc(C)cc(=O)n1C1OC(COC(C)=O)C(OC(C)=O)C(OC(C)=O)C1OC(C)=O` (stereo not given), the TGI in [9], in experiment [1], in experiment [2], in [3], in experiment [5] and in experiment [6] was greater than 100 µM throughout. The molecule also returned a TGI in experiment [8] greater than 100 µM.
In the case of `COc1ccc2nc(-c3ccc(O)cc3)ccc2c1`, the total growth inhibition concentration (TGI) in experiment [9], in experiment [1], in experiment [2], in experiment [10], in [3] and in [6] was greater than 100 µM in each case. The TGI in experiment [7] was greater than 100 µM.
On to `COC(=O)c1cc2ccccc2c2nc3ccccc3c(Cl)c12`, for which the TGI in experiment [9] is greater than 100 µM; in experiment [1] it was greater than 100 µM; in [2], greater than 100 µM; in [3], 29 µM; in [4], greater than 100 µM; in experiment [5], greater than 100 µM. The TGI in experiment [6] and in experiment [8] was greater than 100 µM throughout.
Turning to `Cc1cc(OC(=O)c2c(C)cc(OC(=O)c3c(C)cc(O)cc3O)cc2O)cc(O)c1C(=O)O`, the TGI in experiment [9], in experiment [1], in [2], in experiment [3], in experiment [4] and in experiment [5] was greater than 100 µM in each case. In addition, the TGI in experiment [6], in experiment [7] and in experiment [8] was greater than 100 µM throughout.
As to `O=C(NN1C(=O)C(Cl)C1c1c(O)ccc2ccccc12)c1ccccc1O` (stereo not given), the TGI in experiment [9], in experiment [1], in experiment [2], in [10], in experiment [5] and in experiment [6] was greater than 100 µM in each case. In addition, the TGI in experiment [7] and in [8] was greater than 100 µM throughout.
Turning to `C/C(CC(=O)Nc1cccc(Cl)c1C)=N\N=C(N)N`, the TGI in experiment [9], in [1], in experiment [2], in experiment [10], in experiment [3] and in experiment [5] was greater than 100 µM in each case. The TGI in experiment [6], in experiment [7] and in experiment [8] was greater than 100 µM each time.
`C1=C(c2ccccc2)C(OC2Oc3ccccc3C=C2c2ccccc2)Oc2ccccc21` (stereo not given): the TGI in [9], in experiment [1], in experiment [2], in experiment [10], in experiment [3] and in [4] was greater than 100 µM throughout. Further, the TGI in experiment [5], in [6], in [7] and in [8] was greater than 100 µM each time.
Turning to `COc1cccc2c1[C@H]1OC(=O)NC1CCCCC2` (stereo not given in full), the TGI in experiment [9], in [1], in experiment [2], in [10], in experiment [3] and in experiment [6] was greater than 100 µM each time. In addition, the TGI in experiment [7] and in experiment [8] was greater than 100 µM each time.
